In US20220267269A1, “COMPOUNDS FOR THE MODULATION OF PROPROTEIN CONVERTASE SUBTILISIN/KEXIN TYPE 9 (PCSK9)” (SRX Cardio, LLC, priority 2019, published 2022):

Columns and labels:
[1] = In vivo PK in mice (IV and PO); details: male, C57BL/6, mouse, plasma
Procedure: (§1) A representative compound (Compound 1041) was tested for oral bioavailability and efficacy in mice. Male C57BL/6 mice were purchased from Taconic Biosciences (Rensselaer, New York) and housed under standard conditions with the exception of being provided a high fat diet (#TD.90221, Envigo, Madison, Wis.) and water ad libitum. Following 4 weeks of diet acclimation the animals were then dosed with compound or vehicle as control specimens. Compound readily dissolved at 1.5 mg/ml in a 1% Tween-80 aqueous solution with 10-15 minutes sonication. This solution was used at the 1.5 mg/ml concentration for oral (PO) dosing or further diluted with sterile saline for intravenous (IV) dosing.
Test animals received a single dose at 3 mg/kg by IV or 15 mg/kg by PO while control animals received an equal volume of vehicle control by IV or PO, respectively. Plasma samples were collected at 0.25, […], 1, 2, 3, 6, 8, 24, and 48 hours while liver specimens were collected at 8, 24, and 48 hours and drug concentration were measured by LC-MS/MS per standard protocols.
In brief, blood was immediately centrifuged, and the resulting plasma was frozen and stored at −80° C. until analysis. […] Compound concentrations were determined by a liquid chromatography-mass tandem spectrometry (LC-MS/MS) per routine method (Quintara Discovery, Hayward, Calif.) following the standard protocol. […]

PCSK9 = molecular target: T1, PCSK9 (Homo sapiens, UniProt Q8NBP7); test: Fluorescent-LDL uptake analysis by flow cytometric analysis; assay type: cell-based
T1 construct: purchased Cayman Chemical 20631
T1 sequence (Q8NBP7 153-692): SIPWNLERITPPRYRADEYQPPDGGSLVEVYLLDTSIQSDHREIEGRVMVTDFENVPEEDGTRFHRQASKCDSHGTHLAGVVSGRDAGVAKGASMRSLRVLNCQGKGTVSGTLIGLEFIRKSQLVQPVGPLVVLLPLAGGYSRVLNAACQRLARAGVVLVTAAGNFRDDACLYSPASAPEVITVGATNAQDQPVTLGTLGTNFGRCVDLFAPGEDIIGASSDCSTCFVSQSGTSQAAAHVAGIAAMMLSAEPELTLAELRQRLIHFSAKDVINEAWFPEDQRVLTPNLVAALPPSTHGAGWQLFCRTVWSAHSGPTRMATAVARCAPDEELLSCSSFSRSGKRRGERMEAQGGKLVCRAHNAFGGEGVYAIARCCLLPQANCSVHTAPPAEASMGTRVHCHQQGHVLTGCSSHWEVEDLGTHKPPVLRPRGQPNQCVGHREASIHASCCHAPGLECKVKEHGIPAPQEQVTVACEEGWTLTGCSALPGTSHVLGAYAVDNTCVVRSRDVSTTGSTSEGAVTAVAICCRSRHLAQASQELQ
Procedure: Cells, such as HuH7, FL83B, or a cell line transfected with a short-hairpin PCSK9 knockdown sequence such as HuH7/shPCSK9 or FL83B/shPCSK9 were plated and cultured at 37° C. for 12-24 h. Culture media was removed and replaced with fresh lipoprotein-depleted culture media supplemented with 5 μg/mL of fluorescently labeled LDL or lipoprotein-depleted culture media supplemented with 5 μg/mL of fluorescently labeled LDL plus a concentration of recombinant PCSK9 (for example 5 μg/mL recombinant PCSK9; Cayman Chemical, Cat. #20631). Examples of fluorescently labeled LDL include: DiI-LDL (Kalen Biomedical), or LDL conjugated to Dylight (e.g., LDL-Dylight 488, or LDL-Dylight 550 (Cayman Chemical, Cat. #10011229)). Lipoprotein-depleted culture media was composed of DMEM (Invitrogen) with 10% lipoprotein-depleted fetal bovine serum (Kalen Biomedical) and supplemented with penicillin-streptomycin (Life Technologies). Cells were dosed with small molecule test compounds at doses ranging from 0 nM to 100 μM, following a protocol adapted from Benjannet et al., “Effects of the prosegment and pH on the activity of PCSK9: evidence for additional processing events” J Biol Chem. 285(52):40965-40978 (2010), which is incorporated by reference in its entirety.
Following an incubation period of specified length, such as 16 hours, the lipoprotein-depleted media was removed and cells rinsed three times with a rinse solution (Dulbecco's phosphate buffered saline (D-PBS, Life Technologies), supplemented with 0.5% bovine serum albumin (BSA, Sigma) and 1 g/L glucose (Sigma)). The fluid was then removed, and cells are released from the plate using TrypLE Express (Life Technologies) per manufacturer's recommended procedures, such as incubation for 5-10 minutes at 37° C. The TyrpLE-Cell suspension was then transferred to 15 mL conical tubes, volume was increased to 2 mL with D-PBS supplemented with 0.5% BSA, and […], and the tubes were centrifuged at 250×gravity for 10 minutes. Following centrifugation, the supernatant was aspirated and the cell pellet was resuspended in 300 μL PBS and counterstained with 4′,6-diamidino-2-phenylindole (DAPI, Cayman Chemical) as a cell viability marker, other cell viability markers such as 7-aminoactinomycin D (7AAD, Life Technologies) have also been described in the art.
Cells were analyzed by for both 7AAD (dead cells) and fluorescent LDL in live cells using a flow cytometer per the manufacturer's operating manual. Cells incubated with small molecule compounds that are inhibitors of PCSK9 will be expected to show increased amounts of LDL fluorescence, relative to control (no compound) specimens, and cells incubated with small molecule compounds that are activators of PCSK9 will be expected to show decreased amounts of LDL fluorescence relative to control (no compound) specimens.
The LDL-uptake EC50 is provided as follows: +++: <0.5 μM; ++: 0.5-1μM; +: >1 μM.

Male C57BL/6 mice = test: Liver panel in high fat diet mice; assay type: in vivo
Procedure: as §1
To assess animal health following compound exposure, a liver panel (Test Code #60405) was tested by IDEXX BioAnalytics (North Grafton, Mass.). […] Also of note, AST and ALT levels in the liver panel were elevated in the PO vehicle, which is attributed to the high fat diet used in the study (Envigo, #TD.90221).

[2] = Dissolution in dosing vehicle; assay type: physicochemical; details: 1% Tween-80 aqueous solution, 10-15 minutes sonication
Procedure: as §1

[3] = daily 15 mg/kg PO, 72-hour group, versus vehicle control

Cc1cc(-c2ccc(F)cc2)ccc1C1CCCN(C2CCCC2)C1 (stereo not shown) [Compound 1,041, 1-cyclopentyl-3-(4′-fluoro-3-methyl-[1,1′-biphenyl]-4-yl)piperidine]
half-life ([1]; IV 3 mg/kg): 4.8 h
half-life ([1]; PO 15 mg/kg): 9.8 h
EC50 (PCSK9): 0.5 to 1 µM
reduction in ALT levels (Male C57BL/6 mice; [3]): 77.7%
reduction in AST levels (Male C57BL/6 mice; [3]): 72.1%
liver panel toxicity (Male C57BL/6 mice; three daily 15 mg/kg PO doses, 72 hours, versus PO vehicle): no overt toxicity
dissolved concentration [2]: ≥ 1.5 mg/mL
